Converted amounts (≈) assume the structure as drawn.
Tests used:
Format in all cases: in vivo
[1] = tested on: 3-instar larvae of Ostrinia furnacnlis Guenee; assay: Joint toxicity of I-72 + flubendiamide, Example 61, Table 61; conditions: A = compound I-72, B = flubendiamide, corn stem dipping, 72 hours, read-out: LC50
Procedure: Test target: 3-instar larvae of Ostrinia furnacnlis Guenee.
(§1) Preparation of the pesticide solution: according to different test requirements, the test samples were accurately weighed respectively with an electronic analytical balance. The technical pesticides were dissolved in acetone, and then diluted with 0.1% Tween 80 water into a series of pesticide solutions with a certain concentration gradient according to the experimental design dosage.
(§2) Experimental method: first, tender corn stems were selected and dipped in the prepared pesticide solution for 10 s in the order from low dosage to high dosage according to the experimental design. After natural air-drying in the shade, they were placed in a 9-cm-diameter Petri dish with filter paper, and uniform and healthy test insects were introduced, with 10 insects for each treatment and 3 replicates for each treatment. In addition, a blank control was set up.
(§3) The treated test materials were placed in an observation room, and the temperature, humidity and illumination of the observation room could be adjusted as needed. The number of dead and live insects was investigated 72 hours later. […] Then, the co-toxicity coefficient of each ratio was calculated using the Sun Y-P method to evaluate the mixing effect (the same as in Example 1).

[2] = tested on: Bemisia tabaci (Gennadius) nymphs; assay: Joint toxicity of I-72 + thiacloprid, Example 71, Table 71; conditions: A = compound I-72, B = thiacloprid, cotton leaf-disk spraying, 96 hours, read-out: LC50
Procedure: Test target: Bemisia tabaci (Gennadius) nymphs, a sensitive strain reared indoors.
as §1
Experimental method: first, cotton leaves with neat and consistent Bemisia tabaci (Gennadius) nymphs were selected and made into leaf disks, with about 20 insects on each leaf disk. Then, they were evenly sprayed with the pesticide solution in the order from low dosage to high dosage according to the experimental design, with 1.5 mL for each leaf and 3 replicates for each treatment. In addition, a blank control was set up.
as §3, with “96” for “72”

[3] = tested on: adult Bemisia tabaci (Gennadius); assay: Joint toxicity of I-72 + emamectin benzoate, seedling spraying, Example 12, Table 12; conditions: Bemisia tabaci; adults, kidney bean seedling spraying, 72 h; A = compound I-72, B = emamectin benzoate; read-out: LC50
Description: Test subject: adult Bemisia tabaci (Gennadius), a sensitive strain reared indoors.
Experimental method: the spraying method was adopted. The kidney bean seedlings cultivated in the greenhouse were selected and evenly sprayed with the pesticide solution in the order from low dosage to high dosage according to the experimental design. After natural air-drying in the shade, a self-made glass cover was put on, and the test insects were introduced, with 20-30 insects for each treatment and 3 replicates. In addition, a blank control was set up. The number of dead and live insects was investigated 72 hours later. The corrected mortality rate was calculated using the Abbott's formula, and the DPS data processing software was used for statistical analysis to calculate the toxicities (LC50 values) of the single test pesticides and the mixtures under the test ratios.
The test conditions, the preparation of the pesticide solution and the evaluation method were the same as those in Example 1.

[4] = tested on: 3rd-instar larvae of Pyrausta nubilalis Hubern; assay: Joint toxicity of I-72 + metaflumizone, artificial diet-pesticide film, Example 2, Table 2; conditions: Ostrinia nubilalis, 72 h, A = compound I-72, B = metaflumizone, read-out: LC50
Procedure: Test subject: 3rd-instar larvae of Pyrausta nubilalis Hubern, a sensitive strain reared indoors.
Experimental method: the artificial diet-pesticide film method was adopted. A standard clean 24-well culture plate was selected. 1 ml of artificial diet was added to each well. After the diet cooled and solidified, a quantitative amount of a pesticide solution was added to the culture plate using a continuous sampler, and then it was air-dried naturally in the shade. The standard test insects were introduced, with 1 insect in each well, a total of 48 insects. The treated test insects were placed in an observation room under certain conditions. The reaction of the test insects was regularly observed, and the number of dead and live insects was investigated 72 h later.
The test conditions, the preparation method of the pesticide solution, and the evaluation method (Sun Y-P) for the joint action type of the mixture were the same as those in Example 1.

[5] = tested on: 2nd-instar larvae of Spodoptera exigua Hübner; assay: whole plant or invertebrate; conditions: Spodoptera exigua, foliar; A = compound I-72, B = tetrachlorantraniliprole; cabbage leaf dipping; 72 hours; read-out: LC50
Procedure: Test target: 2nd-instar larvae of Spodoptera exigua Hübner.
as §1
as §2, with “cabbage leaves” for “tender corn stems”
(§4) The treated test materials were placed in an observation room, and the temperature, humidity and illumination of the observation room could be adjusted as needed. The number of dead and live insects was investigated 72 hours later.

[6] = tested on: 2nd-instar larvae of Plutella xylostella; assay: whole plant or invertebrate; conditions: Plutella xylostella; single pesticide, 0.5 mg/L; 72 hours; read-out: Measured mortality rate
Procedure: Test target: 2nd-instar larvae of Plutella xylostella.
as §1
as §2, with “cabbage leaves” for “tender corn stems”, “control (CK)” for “control”
as §4, with “alive” for “live”, “later, and the corrected mortality rate was calculated using the Abbott's formula.” for “later.”
The synergism of the mixture was evaluated by the Bliss method. According to the concept of independent joint action he proposed, Bliss believes that the theoretical mortality rate P when insecticides are used in combination can be calculated by the following formula: […]
Pm is the measured mortality rate (%) of the target when the first active ingredient is at a concentration of m; and Pn is the measured mortality rate (%) of the target when the second active ingredient is used at a concentration of n.
If the actual mortality rate of the target after the two active ingredients are mixed at a certain concentration is greater than theoretical mortality rate P, it is determined that the two active ingredients have a synergistic effect when used in combination at the set concentration, and otherwise, they have an antagonistic effect.

[7] = tested on: adult Bemisia tabaci (Gennadius); assay: whole plant or invertebrate; conditions: in Phaseolus vulgaris, 72 h
Procedure: as §1
In addition, a blank control was set up. The number of dead and live insects was investigated 72 hours later.

CN(C(=O)c1ccc2c(c1)OC(F)(F)O2)c1cccc(C(=O)Nc2c(Br)cc(C(F)(C(F)(F)F)C(F)(F)F)cc2OC(F)F)c1F [Compound I-72]
LC50 [1]: 0.804 µg/mL | LC50 [2]: 10.9 µg/mL | LC50 [3]: 2.97 µg/mL | LC50 [4]: 0.67 µg/mL | LC50 [5]: 0.252 µg/mL (≈ 0.339 µM) | mortality at 0.5 µg/mL [6]: 80% | LC50 [7]: 2.91 µg/mL (≈ 3.92 µM)

Source: patent publication US20260198495A1, “BINARY INSECTICIDE COMPOSITION AND USE THEREOF” (SHENYANG SINOCHEM AGROCHEMICALS R & D CO., LTD., priority 2022, published 2026)
